According to ChEMBL document CHEMBL4311976, “Design, synthesis and biological evaluation of novel 7H-pyrrolo[2,3-d]pyrimidine derivatives as potential FAK inhibitors and anticancer agents” (Eur J Med Chem, 2019):

Legend:
[1] = molecular target: Tyrosine-protein kinase ZAP-70 (Homo sapiens) (UniProt P43403); test: Inhibition of recombinant full length His-tagged human ZAP70 expressed in baculovirus expression system at 0.5 uM using tyr 07 as substrate in presence of ATP at Km concentration after 1 hr by Z'-LYTE assay relative to control
[2] = molecular target: Mast/stem cell growth factor receptor Kit (Homo sapiens) (UniProt P10721); test: Inhibition of recombinant His-tagged human KIT (544 to 976 residues) expressed in baculovirus expression system at 0.5 uM using tyr 06 as substrate in presence of ATP at Km concentration after 1 hr by Z'-LYTE assay relative to control
[3] = molecular target: RAC-alpha serine/threonine-protein kinase (Homo sapiens) (UniProt P31749); test: Inhibition of recombinant full-legth His-tagged human AKT1 expressed in baculovirus expression system at 0.5 uM using Ser/Thr 06 as substrate in presence of ATP at Km concentration after 1 hr by Z'-LYTE assay relative to control
[4] = molecular target: CYP3A4 (Homo sapiens, UniProt P08684); test: Inhibition of CYP3A4 in human pooled liver microsomes at 10 uM using midazolam as substrate preincubated for 10 mins followed by NADPH addition and measured after 15 mins by LC/MS/MS analysis relative to control; format: ADME; settings: probe midazolam
[5] = Intrinsic clearance in human liver microsomes at 1 uM measured up to 1 hr in presence of NADPH by LC-MS/MS analysis; format: ADME, Microsome; settings: read-out: CLH
[6] = system: A549; test: Induction of apoptosis in human A549 cells assessed as late apoptotic cells at 3 uM after 72 hrs by Annexin V-FITC/propidium iodide staining-based flow cytometric analysis (reference value: 1.24%); format: functional
[7] = system: A549; test: Induction of apoptosis in human A549 cells assessed as viable cells at 3 uM after 72 hrs by Annexin V-FITC/propidium iodide staining-based flow cytometric analysis (reference value: 94.66%); format: functional; settings: A549, 72 h, read-out: Activity
[8] = system: A549; test: Induction of apoptosis in human A549 cells assessed as early apoptotic cells at 1 uM after 72 hrs by Annexin V-FITC/propidium iodide staining-based flow cytometric analysis (reference value: 2.40%); format: functional
[9] = system: A549; test: Induction of apoptosis in human A549 cells assessed as viable cells at 1 uM after 72 hrs by Annexin V-FITC/propidium iodide staining-based flow cytometric analysis (reference value: 94.66%); format: functional; settings: A549, 72 h, read-out: Activity

Chain of Mast/stem cell growth factor receptor Kit (Homo sapiens) (P10721 whole entry, the tested form may be a part): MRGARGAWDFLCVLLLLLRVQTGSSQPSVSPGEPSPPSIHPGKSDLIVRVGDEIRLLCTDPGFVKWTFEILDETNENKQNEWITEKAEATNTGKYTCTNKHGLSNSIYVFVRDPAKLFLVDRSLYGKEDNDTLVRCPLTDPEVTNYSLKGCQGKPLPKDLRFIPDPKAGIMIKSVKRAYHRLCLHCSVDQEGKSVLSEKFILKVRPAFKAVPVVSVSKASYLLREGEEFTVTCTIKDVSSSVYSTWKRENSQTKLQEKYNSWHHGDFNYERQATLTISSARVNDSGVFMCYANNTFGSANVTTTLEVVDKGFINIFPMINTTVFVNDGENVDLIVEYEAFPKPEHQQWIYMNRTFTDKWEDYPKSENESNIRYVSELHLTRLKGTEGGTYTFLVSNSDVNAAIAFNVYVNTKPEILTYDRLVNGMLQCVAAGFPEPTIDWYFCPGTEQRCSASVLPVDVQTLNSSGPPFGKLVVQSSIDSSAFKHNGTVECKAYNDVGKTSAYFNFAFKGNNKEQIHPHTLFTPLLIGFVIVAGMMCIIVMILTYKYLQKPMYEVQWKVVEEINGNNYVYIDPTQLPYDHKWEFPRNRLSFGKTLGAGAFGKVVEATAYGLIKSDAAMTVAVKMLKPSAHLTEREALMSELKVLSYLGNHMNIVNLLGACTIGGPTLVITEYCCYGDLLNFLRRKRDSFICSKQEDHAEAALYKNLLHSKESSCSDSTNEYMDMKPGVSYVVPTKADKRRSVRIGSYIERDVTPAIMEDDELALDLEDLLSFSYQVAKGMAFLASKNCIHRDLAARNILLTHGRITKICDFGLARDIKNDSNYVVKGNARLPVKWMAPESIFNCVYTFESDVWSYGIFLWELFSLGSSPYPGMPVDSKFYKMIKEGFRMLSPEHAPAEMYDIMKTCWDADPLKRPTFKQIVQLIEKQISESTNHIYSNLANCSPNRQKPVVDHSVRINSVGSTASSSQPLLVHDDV
Chain of RAC-alpha serine/threonine-protein kinase (Homo sapiens) (P31749 whole entry): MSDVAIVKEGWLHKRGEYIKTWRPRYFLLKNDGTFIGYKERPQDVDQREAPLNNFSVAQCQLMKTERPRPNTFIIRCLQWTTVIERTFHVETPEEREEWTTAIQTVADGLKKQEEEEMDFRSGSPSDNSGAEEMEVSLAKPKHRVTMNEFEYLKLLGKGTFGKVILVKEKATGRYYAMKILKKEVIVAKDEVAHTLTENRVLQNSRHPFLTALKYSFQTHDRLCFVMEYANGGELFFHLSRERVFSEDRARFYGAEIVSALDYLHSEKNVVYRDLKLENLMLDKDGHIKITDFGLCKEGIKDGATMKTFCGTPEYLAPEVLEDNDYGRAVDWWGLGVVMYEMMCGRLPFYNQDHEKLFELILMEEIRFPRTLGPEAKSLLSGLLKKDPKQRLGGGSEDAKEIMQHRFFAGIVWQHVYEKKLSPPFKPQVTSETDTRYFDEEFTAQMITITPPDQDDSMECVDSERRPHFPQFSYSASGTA
Chain of CYP3A4 (P08684 whole entry): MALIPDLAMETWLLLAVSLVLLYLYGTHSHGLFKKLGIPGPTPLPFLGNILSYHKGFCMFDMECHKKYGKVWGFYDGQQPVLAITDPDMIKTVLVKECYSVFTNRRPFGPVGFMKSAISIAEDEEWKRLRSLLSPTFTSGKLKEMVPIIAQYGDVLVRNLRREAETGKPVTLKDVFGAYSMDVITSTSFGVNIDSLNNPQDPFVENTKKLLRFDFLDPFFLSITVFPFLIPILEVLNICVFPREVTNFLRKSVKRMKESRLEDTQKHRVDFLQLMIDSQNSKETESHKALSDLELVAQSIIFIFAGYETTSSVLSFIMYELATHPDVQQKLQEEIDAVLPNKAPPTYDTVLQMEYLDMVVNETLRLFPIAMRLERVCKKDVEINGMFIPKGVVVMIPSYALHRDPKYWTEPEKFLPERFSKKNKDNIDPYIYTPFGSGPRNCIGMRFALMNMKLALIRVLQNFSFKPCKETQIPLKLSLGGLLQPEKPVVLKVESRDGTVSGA
Chain of Tyrosine-protein kinase ZAP-70 (Homo sapiens) (P43403 whole entry, the tested form may be a part): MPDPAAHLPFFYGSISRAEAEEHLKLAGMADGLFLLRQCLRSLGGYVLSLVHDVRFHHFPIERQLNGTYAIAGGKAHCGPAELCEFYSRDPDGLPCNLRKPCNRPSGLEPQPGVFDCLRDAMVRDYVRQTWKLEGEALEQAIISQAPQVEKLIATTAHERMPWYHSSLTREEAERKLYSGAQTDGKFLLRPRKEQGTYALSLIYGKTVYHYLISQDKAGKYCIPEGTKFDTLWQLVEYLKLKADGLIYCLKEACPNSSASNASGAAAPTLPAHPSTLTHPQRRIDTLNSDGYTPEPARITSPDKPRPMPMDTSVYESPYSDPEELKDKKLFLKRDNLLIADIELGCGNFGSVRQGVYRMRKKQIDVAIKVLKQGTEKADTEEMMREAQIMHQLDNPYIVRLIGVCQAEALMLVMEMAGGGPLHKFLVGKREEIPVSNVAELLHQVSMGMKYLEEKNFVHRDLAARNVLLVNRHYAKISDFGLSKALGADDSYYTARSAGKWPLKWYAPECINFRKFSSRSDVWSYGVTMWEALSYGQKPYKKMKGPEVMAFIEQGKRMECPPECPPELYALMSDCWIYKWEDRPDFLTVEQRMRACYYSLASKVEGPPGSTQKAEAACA

- inhibition [1]: -3%
- inhibition [2]: 2%
- inhibition [3]: 0%
- inhibition at 0.25 h, 10 µM [4]: 10.5%
- microsomal CLint at 1 µM [5]: 12.9 µL/min/mg
SMILES: COc1cc(C(=O)NC2CCNCC2)ccc1Nc1nc(Nc2ccccc2P(C)(C)=O)c2cc[nH]c2n1
- Activity [6]: 25.09%
- viability at 3 µM [7]: 52.9%
- Activity [8]: 13.27%
- viability at 1 µM [9]: 70.7%
